Consider 4 molecules from patent publication US20230085307A1, “PYRIDAZINONE COMPOUND AND HERBICIDE” (NISSAN CHEMICAL CORPORATION, priority 2019, published 2023).

The structures appear in SMILES notation.

Assay [1] deals with oval-leafed pondweed. Description: Test Example 2: herbicidal activity, application during weed generation under submerged conditions (Table 17, symbol C). The class given is in vivo, oval-leafed pondweed (Monochoria vaginalis). The following applies: AAH 320 g/ha; application during weed generation, submerged conditions. The method, boiled down:
(§1)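 In this pot test, flooded alluvial soil (water depth 4 cm) holds all three species sown as a mixture. Once seedlings have one to two leaves, the compound's emulsion, thinned with water to the intended dose, is poured on the water; grading follows after three weeks on the earlier criteria.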

Assay [2] deals with Japanese bulrush. Description: Test Example 2: herbicidal activity, application during weed generation under submerged conditions (Table 17, symbol B). The class given is in vivo, Japanese bulrush (Schoenoplectus juncoides). The following applies: AAH 320 g/ha; application during weed generation, submerged conditions. The method, boiled down:
as §1

The test system of assay [3] is Italian ryegrass. Briefly: Test Example 5: herbicidal effect by foliage application, plastic box (Table 20, symbol K). In kind it is in vivo, Italian ryegrass (Lolium multiflorum). The following applies: foliage application, 320 g/ha, three weeks after application. The method, boiled down: (§2)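 Sow seeds spot-wise in sterilized diluvial soil; cover with ~1.5 cm soil. Grow 14 days in greenhouse, 25° C. to 30° C. Spray foliage with emulsion diluted to predetermined amount. Rate effect after 3 weeks.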

In assay [4] the test system is rice flat sedge. Briefly: Test Example 3: herbicidal effect by foliage application, Wagner pot (Table 18, symbol E). In kind it is in vivo, rice flat sedge (Cyperus iria). Particulars: amount of applied herbicide 320 g/ha. The method, boiled down: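 Plants were sown in alluvial soil held under 0.1–0.5 cm standing water and grown 14 days in a greenhouse at 25–30 °C. An emulsifiable formulation, water-diluted to the set dose, was then sprayed onto the foliage, and effects were scored three weeks later using previously defined criteria.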

Assay [5] deals with windgrass. Briefly: Test Example 4: herbicidal effect by soil treatment (Table 19, symbol L). The class given is in vivo, windgrass (Apera spica-venti). Particulars: amount of applied herbicide 320 g/ha. The method, boiled down:
(§3)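 Applied as a water-diluted emulsion, the compound was sprayed onto soil covering newly sown seeds. Evaluation came three weeks after application, in a greenhouse held at 25° C. to 30° C.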

Assay [6] has as its system lambsquarters. Briefly: Test Example 4: herbicidal effect by soil treatment (Table 19, symbol O). Particulars: amount of applied herbicide 320 g/ha. The class given is in vivo, lambsquarters (Chenopodium album). A digest of the protocol: as §3
The subject of assay [7] is persian speedwell. Description: Test Example 4: herbicidal effect by soil treatment (Table 19, symbol R). The following applies: amount of applied herbicide 320 g/ha. In kind it is in vivo, Persian speedwell (Veronica persica). A digest of the protocol:
as §3

Assay [8] has as its system late watergrass. Briefly: Test Example 2: herbicidal activity, application during weed generation under submerged conditions (Table 17, symbol A). The class given is in vivo, late watergrass (Echinochloa oryzicola). Particulars: AAH 320 g/ha; application during weed generation, submerged conditions. The method, boiled down:
as §1

Assay [9] concerns velvetleaf. Briefly: Test Example 5: herbicidal effect by foliage application, plastic box (Table 20, symbol M). In kind it is in vivo, velvetleaf (Abutilon theophrasti). Particulars: foliage application, 320 g/ha, three weeks after application. The method, boiled down: as §2
For assay [10], the system named is chickweed. Description: Test Example 4: herbicidal effect by soil treatment (Table 19, symbol P). In kind it is in vivo, common chickweed (Stellaria media). The following applies: amount of applied herbicide 320 g/ha. A digest of the protocol:
as §3

Assay [11] relates to late watergrass. Briefly: Test Example 1: herbicidal activity, application before weed generation under submerged conditions (Table 16, symbol A). The following applies: amount of applied herbicide 320 g/ha. In kind it is in vivo, late watergrass (Echinochloa oryzicola). A digest of the protocol:
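Emulsion formulation, water-diluted to set dose, was put onto the flooded surface (4 cm depth, alluvial soil) the same day weeds were sown and 2.5-leaf rice transplanted. After 3 weeks at 25-30 °C under glass, each species was rated 0 (≤5% kill) to 5 (≥90% kill).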

For assay [12], the system named is velvetleaf. Briefly: Test Example 4: herbicidal effect by soil treatment (Table 19, symbol M). In kind it is in vivo, velvetleaf (Abutilon theophrasti). Particulars: amount of applied herbicide 320 g/ha. A digest of the protocol: as §3
In assay [13] the test system is green foxtail. Briefly: Test Example 4: herbicidal effect by soil treatment (Table 19, symbol G). In kind it is in vivo, green foxtail (Setaria viridis). Particulars: amount of applied herbicide 320 g/ha. A digest of the protocol: as §3
Assay [14] has as its system barnyard grass. Description: Test Example 4: herbicidal effect by soil treatment (Table 19, symbol H). The class given is in vivo, barnyard grass (Echinochloa crus-galli). Particulars: amount of applied herbicide 320 g/ha. The method, boiled down:
as §3

For assay [15], the system named is green foxtail. Briefly: Test Example 5: herbicidal effect by foliage application, plastic box (Table 20, symbol G). Particulars: foliage application, 320 g/ha, three weeks after application. In kind it is in vivo, green foxtail (Setaria viridis). A digest of the protocol:
as §2

For `CCCC(=O)Oc1c(C)nn(C)c(=O)c1-c1c(-c2ccc(OC)cc2)oc2ccc(C)cc12` [9-008], the “herbicidal effect rating, C: oval-leafed pondweed” value (“herbicidal effect rating, C” below) in assay [1] is listed as 5 (Herbicidal rate of 90% or more (almost completely withered)). Also, in [2], the “herbicidal effect rating, B: Japanese bulrush” value (“herbicidal effect rating, B” below) is 5 (Herbicidal rate of 90% or more (almost completely withered)). Also, in assay [3], the “herbicidal effect on Italian ryegrass (K)” value (“herbicidal effect … (K)” below) is 5 (Herbicidal rate of 90% or more (almost completely withered)). Besides, the “Herbicidal effect on E (rice flat sedge), foliage application” value (“Herbicidal effect on E (rice flat sedge)” below) in assay [4] is 5 (Herbicidal rate of 90% or more (almost completely withered)). For the same molecule, the “L: windgrass, herbicidal effect grade” value in assay [5] is 0 (Herbicidal rate of 5% or less (almost no effect)). The “O: lambsquarters, herbicidal effect grade” value (“O: lambsquarters” below) in [6] is 4 (Herbicidal rate of 70% or more and less than 90%). Besides, the “R: persian speedwell, herbicidal effect grade” value (“R: persian speedwell” below) in assay [7] is 4 (Herbicidal rate of 70% or more and less than 90%). The “herbicidal effect rating, A: late watergrass” value in assay [8] was 1 (Herbicidal rate of 5% or more and less than 20%). Besides, the “herbicidal effect on velvetleaf (M)” value in assay [9] is 5 (Herbicidal rate of 90% or more (almost completely withered)). For the same molecule, the “P: chickweed, herbicidal effect grade” value in assay [10] was 0 (Herbicidal rate of 5% or less (almost no effect)). For the same molecule, in assay [11], the “Herbicidal effect, A: late watergrass” value is given as 5 (Herbicidal rate of 90% or more (almost completely withered)). In addition, the “M: velvetleaf, herbicidal effect grade” value in assay [12] is recorded as 0 (Herbicidal rate of 5% or less (almost no effect)). For the same molecule, the “G: green foxtail, herbicidal effect grade” value (“G: green foxtail” below) in assay [13] is 2 (Herbicidal rate of 20% or more and less than 40%). Further, in assay [14], the “H: barnyard grass, herbicidal effect grade” value (“H: barnyard grass” below) was 3 (Herbicidal rate of 40% or more and less than 70%). Besides, in assay [15], the “herbicidal effect on green foxtail (G)” value was 3 (Herbicidal rate of 40% or more and less than 70%).

On to `CCOc1ccc(-c2oc3ccc(F)cc3c2-c2c(O)c(C)nn(C)c2=O)cc1` [9-021], for which the “herbicidal effect rating, C” value in assay [1] is 4 (Herbicidal rate of 70% or more and less than 90%). Further, in assay [2], the “herbicidal effect rating, B” value was 3 (Herbicidal rate of 40% or more and less than 70%). The “herbicidal effect … (K)” value in assay [3] is 5 (Herbicidal rate of 90% or more (almost completely withered)). Moreover, the “Herbicidal effect on E (rice flat sedge)” value in [4] is recorded as 5 (Herbicidal rate of 90% or more (almost completely withered)). Also, the “L: windgrass, herbicidal effect grade” value in assay [5] is 3 (Herbicidal rate of 40% or more and less than 70%). The “O: lambsquarters” value in assay [6] was 4 (Herbicidal rate of 70% or more and less than 90%). Also, in assay [7], the “R: persian speedwell” value is on record as 5 (Herbicidal rate of 90% or more (almost completely withered)). Also, the “herbicidal effect rating, A: late watergrass” value in assay [8] was 4 (Herbicidal rate of 70% or more and less than 90%). Besides, in assay [9], the “herbicidal effect on velvetleaf (M)” value is given as 5 (Herbicidal rate of 90% or more (almost completely withered)). The “P: chickweed, herbicidal effect grade” value in [10] is 0 (Herbicidal rate of 5% or less (almost no effect)). For the same molecule, in assay [11], the “Herbicidal effect, A: late watergrass” value is reported as 5 (Herbicidal rate of 90% or more (almost completely withered)). Further, the “M: velvetleaf, herbicidal effect grade” value in assay [12] is 3 (Herbicidal rate of 40% or more and less than 70%). For the same molecule, the “G: green foxtail” value in [13] was 4 (Herbicidal rate of 70% or more and less than 90%). In assay [14], the “H: barnyard grass” value is 4 (Herbicidal rate of 70% or more and less than 90%). Further, the “herbicidal effect on green foxtail (G)” value in assay [15] is 4 (Herbicidal rate of 70% or more and less than 90%).

For `CCCOc1ccc(-c2oc3ccc(F)cc3c2-c2c(O)c(C)nn(C)c2=O)cc1` [9-023], the “herbicidal effect rating, C” value in assay [1] is 5 (Herbicidal rate of 90% or more (almost completely withered)). The “herbicidal effect rating, B” value in assay [2] is 3 (Herbicidal rate of 40% or more and less than 70%). In assay [3], the “herbicidal effect … (K)” value was 5 (Herbicidal rate of 90% or more (almost completely withered)). Besides, the “Herbicidal effect on E (rice flat sedge)” value in assay [4] was 5 (Herbicidal rate of 90% or more (almost completely withered)). Further, in [5], the “L: windgrass, herbicidal effect grade” value was 3 (Herbicidal rate of 40% or more and less than 70%). Besides, the “O: lambsquarters” value in [6] was 5 (Herbicidal rate of 90% or more (almost completely withered)). Moreover, in assay [7], the “R: persian speedwell” value was 4 (Herbicidal rate of 70% or more and less than 90%). In addition, the “herbicidal effect rating, A: late watergrass” value in assay [8] is reported as 5 (Herbicidal rate of 90% or more (almost completely withered)). Further, in assay [9], the “herbicidal effect on velvetleaf (M)” value was 5 (Herbicidal rate of 90% or more (almost completely withered)). For the same molecule, in [10], the “P: chickweed, herbicidal effect grade” value was 0 (Herbicidal rate of 5% or less (almost no effect)). Also, in [11], the “Herbicidal effect, A: late watergrass” value was 5 (Herbicidal rate of 90% or more (almost completely withered)). Besides, the “M: velvetleaf, herbicidal effect grade” value in assay [12] is 3 (Herbicidal rate of 40% or more and less than 70%). In addition, the “G: green foxtail” value in [13] was 5 (Herbicidal rate of 90% or more (almost completely withered)). Moreover, the “H: barnyard grass” value in assay [14] is listed as 5 (Herbicidal rate of 90% or more (almost completely withered)). Also, in assay [15], the “herbicidal effect on green foxtail (G)” value is 5 (Herbicidal rate of 90% or more (almost completely withered)).

In the case of `COc1ccccc1-c1sc2c(Cl)c(OC)ccc2c1-c1c(O)c(C)nn(C)c1=O` [Compound No. 7-001, 4-(7-chloro-6-methoxy-2-(2-methoxyphenyl)benzo[b]thiophen-3-yl)-5-hydroxy-2,6-dimeth ylpyridazin-3-(2H)-one], the “herbicidal effect rating, C” value in assay [1] was 3 (Herbicidal rate of 40% or more and less than 70%). The “herbicidal effect rating, B” value in assay [2] was 3 (Herbicidal rate of 40% or more and less than 70%). For the same molecule, in [3], the “herbicidal effect … (K)” value is reported as 5 (Herbicidal rate of 90% or more (almost completely withered)). For the same molecule, the “Herbicidal effect on E (rice flat sedge)” value in assay [4] is 4 (Herbicidal rate of 70% or more and less than 90%). Also, the “L: windgrass, herbicidal effect grade” value in [5] is listed as 0 (Herbicidal rate of 5% or less (almost no effect)). Besides, the “O: lambsquarters” value in assay [6] was 5 (Herbicidal rate of 90% or more (almost completely withered)). The “R: persian speedwell” value in assay [7] is 5 (Herbicidal rate of 90% or more (almost completely withered)). Also, in [8], the “herbicidal effect rating, A: late watergrass” value was 3 (Herbicidal rate of 40% or more and less than 70%). For the same molecule, in assay [9], the “herbicidal effect on velvetleaf (M)” value was 5 (Herbicidal rate of 90% or more (almost completely withered)). In assay [10], the “P: chickweed, herbicidal effect grade” value was 5 (Herbicidal rate of 90% or more (almost completely withered)). In addition, the “Herbicidal effect, A: late watergrass” value in assay [11] was 3 (Herbicidal rate of 40% or more and less than 70%). The “M: velvetleaf, herbicidal effect grade” value in assay [12] was 3 (Herbicidal rate of 40% or more and less than 70%). Also, in [13], the “G: green foxtail” value is on record as 0 (Herbicidal rate of 5% or less (almost no effect)). Moreover, in assay [14], the “H: barnyard grass” value was 3 (Herbicidal rate of 40% or more and less than 70%). Moreover, the “herbicidal effect on green foxtail (G)” value in assay [15] is 4 (Herbicidal rate of 70% or more and less than 90%).
